Consider 26 compounds from patent US11753403B2, “EIF4E inhibitors and uses thereof” (PIC Therapeutics, Inc., priority 2020, dated 2023).

A value given as a limit tells only on which side of the number the result lay.

Human eIF4E (aa 28-217) / biotin labeled 4G2 peptide, sequence (P06730 28-217): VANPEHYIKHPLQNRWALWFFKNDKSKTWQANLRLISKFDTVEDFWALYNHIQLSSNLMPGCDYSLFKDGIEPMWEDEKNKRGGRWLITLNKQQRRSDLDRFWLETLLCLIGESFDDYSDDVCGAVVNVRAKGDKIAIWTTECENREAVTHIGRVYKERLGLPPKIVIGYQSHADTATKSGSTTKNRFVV

The experiment concerns the target Human eIF4E (aa 28-217) / biotin labeled 4G2 peptide (Homo sapiens (Human), UniProt P06730). As to the kind of experiment: Human eIF4E/4G2 binding assay (TR-FRET). Conditions: Human eIF4E/4G2 TR-FRET binding assay; head says IC50, legend says EC50. The gist of the method:
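Refolded His-tagged human eIF4E (aa 28-217), 82.5 nM working stock, preincubated 4 h at RT with compounds (10-point 2-fold series) in NaPi pH 6.5 buffer with DTT and gamma globulin. Biotin-4G2 peptide then added for 20 min, followed by Eu-streptavidin/APC-anti-His for 20 min; TR-FRET 665/615 nm ratio normalized, IC50 fitted.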
(In general: In TR-FRET formats the signal depends on donor and acceptor labels being close together.)
For `COc1ccccc1CC(CNc1nc(-c2ccc(Cl)c(Cl)c2)c(C(C)C)s1)C(=O)O` (centres unmarked) [I-3], the IC50 is no more than 1000 nM. The compound `CC(C)c1sc(NCC(Cc2cccc3c2OCO3)C(=O)O)nc1-c1ccc(Cl)c(Cl)c1` (centres unmarked) [I-2] returned an IC50 of no more than 1000 nM. Next, `CC(C)c1sc(N(CCC(=O)O)Cc2ccccc2)nc1-c1ccc(F)c(Cl)c1` [I-78]: 1000 to 10000 nM; `CC(C)Cc1sc(N(CCC(=O)O)Cc2cccs2)nc1-c1ccc(Cl)c(Cl)c1` [I-65]: no more than 1000 nM. Next, `CC(C)Cc1sc(N(CCC(N)=O)Cc2ccccc2)nc1-c1ccc(Cl)c(Cl)c1` [I-189]: greater than 10000 nM; `Cc1cc(CC(CNc2nc(-c3ccc(Cl)c(Cl)c3)c(CC(C)C)s2)C(=O)O)ccn1` (centres unmarked) [I-151]: 1000 to 10000 nM; `CC(C)c1sc(Nc2ncc(Cc3ccccc3)cc2C(=O)O)nc1-c1ccc(Cl)c(C(F)(F)F)c1` [I-265]: no more than 1000 nM. With `CC(C)Cc1sc(Nc2cc(-c3cccnc3)sc2C(=O)O)nc1-c1ccc(Cl)c(Cl)c1` [I-273] the figure was no more than 1000 nM; with `CC(C)Cc1sc(N(CCc2ccccc2)CC(=O)O)nc1-c1ccc(Cl)c(Cl)c1` [I-60], no more than 1000 nM. Regarding `CC(C)Cc1sc(-c2cc(C(=O)O)ccn2)nc1-c1ccc(Cl)c(Cl)c1` [I-238], the IC50 was 1000 to 10000 nM. Next, `CC(C)Cc1sc(Nc2cc(C(=O)O)ccn2)nc1-c1ccc(Cl)c(Cl)c1` [I-222]: 1000 to 10000 nM; `CC(C)Cc1sc(N(CCS(=O)(=O)NC(=O)CCN)Cc2ccccc2)nc1-c1ccc(Cl)c(Cl)c1` [I-188]: greater than 10000 nM; `CC(C)c1sc(Nc2ncc(C(F)(F)F)cc2C(=O)O)nc1-c1nc2ccccc2s1` [I-320, 2-(4-(benzo[d]thiazol-2-yl)-5-isopropylthiazol-2-ylamino)-5-(trifluoromethyl)nicotinic acid]: no more than 1000 nM. With `CC(C)Cc1sc(Nc2ncc(-c3cccs3)cc2C(=O)O)nc1-c1ccc(OCCO)c(Cl)c1` [I-331] the figure was no more than 1000 nM. Next, `CC(C)c1sc(NCC(Cc2ccccc2)C(=O)O)nc1-c1ccc(Cl)cc1` (centres unmarked) [I-38]: 1000 to 10000 nM. `CC(C)Cc1sc(Nc2ccc(Cl)c(C(=O)O)c2)nc1-c1ccc(Cl)c(Cl)c1` [I-208] registered an IC50 of no more than 1000 nM.

The compound `COc1ccnc(Nc2nc(-c3ccc(Cl)c(Cl)c3)c(CC(C)C)s2)c1C(=O)O` [I-243] showed an IC50 of no more than 1000 nM. Next, `CC(C)Cc1sc(N(CC(=O)O)Cc2ccccc2)nc1-c1ccc(Cl)c(Cl)c1` [I-59]: no more than 1000 nM; `O=C(O)CCN(CCc1ccccc1)c1nc(-c2ccc(Cl)c(Cl)c2)c(C2CC2)s1` [I-57]: no more than 1000 nM. `CC(C)Cc1sc(Nc2cc(NC(=O)c3ccccc3)cc(C(=O)O)c2)nc1-c1ccc(Cl)c(Cl)c1` [I-217] yielded a half-inhibitory concentration (IC50) of no more than 1000 nM.

For `CCOC(=O)N1CCN(c2nc(-c3ccc(Cl)c(Cl)c3)c(CC(C)C)s2)CC1C(=O)O` (centres unmarked) [I-245, 4-(4-(3,4-dichlorophenyl)-5-isobutylthiazol-2-yl)-1-(ethoxycarbonyl)piperazine-2-carboxylic acid], the IC50 was 1000 to 10000 nM. Next, `CCOC(=O)NC1CN(c2nc(-c3ccc(Cl)c(Cl)c3)c(CC(C)C)s2)C1=O` (centres unmarked) [I-139, ethyl 1-(4-(3,4-dichlorophenyl)-5-isobutylthiazol-2-yl)-2-oxoazetidin-3-ylcarbamate]: 1000 to 10000 nM; `CC(C)Cc1sc(Nc2cccnc2C(=O)O)nc1-c1ccc(Cl)c(Cl)c1` [I-234, 3-(4-(3,4-dichlorophenyl)-5-isobutylthiazol-2-ylamino)picolinic acid]: 1000 to 10000 nM; `CC(C)Cc1sc(NCC(CCCCN(C)C)C(=O)O)nc1-c1ccc(Cl)c(Cl)c1` (centres unmarked) [I-145, 2-((4-(3,4-dichlorophenyl)-5-isobutylthiazol-2-ylamino)methyl)-6-(dimethylamino) hexanoic acid]: greater than 10000 nM.

For `CC(C)Cc1sc(N(CCC(=O)N2CCC(CN)CC2)Cc2ccccc2)nc1-c1ccc(Cl)c(Cl)c1` [I-135], the IC50 is 1000 to 10000 nM. With `CC(C)Cc1sc(N(CCC(=O)O)Cc2ccccc2)nc1-c1cc(F)c(F)c(F)c1` [I-81] the figure was 1000 to 10000 nM.

What is called IC50 is the concentration that inhibits the measured activity by half. The low end stands for higher potency, the high end for lower potency.
